Assay results: patent US9745284B2, “2-pyridyloxy-4-ether orexin receptor antagonists” (MERCK SHARP & DOHME CORP., priority 2013, dated 2017)

How the values were obtained:
[1] = biological target: human orexin-2 receptor (Homo sapiens (Human), UniProt O43614); assay: FLIPR Ca2+ flux assay, orexin-2 receptor; type: cell-based; settings: CHO cells expressing human orexin-2 receptor; agonist 70 pM Ala-6,12 orexin-A; read-out: hOX2R FLIPR IC50
Description: The utility of the compounds in accordance with the present invention as orexin receptor OX1R and/or OX2R antagonists may be readily determined without undue experimentation by methodology well known in the art, including the “FLIPR Ca^2+ Flux Assay” (Okumura et al., Biochem. Biophys. Res. Comm. 280:976-981, 2001). In a typical experiment the OX1 and OX2 receptor antagonistic activity of the compounds of the present invention was determined in accordance with the following experimental method. For intracellular calcium measurements, Chinese hamster ovary (CHO) cells expressing the rat orexin-1 receptor or the human orexin-2 receptor, are grown in Iscove's modified DMEM containing 2 mM L-glutamine, […], 1% hypoxanthine-thymidine supplement, 100 U/ml penicillin, 100 μg/ml streptomycin and 10% heat-inactivated fetal calf serum (FCS). The cells are seeded at 20,000 cells/well into Becton-Dickinson black 384-well clear bottom sterile plates coated with poly-D-lysine. All reagents were from GIBCO-Invitrogen Corp. The seeded plates are incubated overnight at 37° C. and 5% CO2. Ala-6,12 human orexin-A as the agonist is prepared as a 1 mM stock solution in 1% bovine serum albumin (BSA) and diluted in assay buffer (HBSS containing 20 mM HEPES, 0.1% BSA and 2.5 mM probenecid, pH7.4) for use in the assay at a final concentration of 70 pM. Test compounds are prepared as 10 mM stock solution in DMSO, then diluted in 384-well plates, first in DMSO, then assay buffer. On the day of the assay, cells are washed 3 times with 100 μl assay buffer and then incubated for 60 min (37° C., 5% CO2) in 60 μl assay buffer containing 1 μM Fluo-4AM ester, 0.02% pluronic acid, and 1% BSA. The dye loading solution is then aspirated and cells are washed 3 times with 100 μl assay buffer. 30 μl of that same buffer is left in each well. Within the Fluorescent Imaging Plate Reader (FLIPR, Molecular Devices), test compounds are added to the plate in a volume of 25 μl, incubated for 5 min and finally 25 μl of agonist is added. Fluorescence is measured for each well at 1 second intervals for 5 minutes and the height of each fluorescence peak is compared to the height of the fluorescence peak induced by 70 pM Ala-6,12 orexin-A with buffer in place of antagonist. For each antagonist, IC50 value (the concentration of compound needed to inhibit 50% of the agonist response) is determined. Alternatively, compound potency can be assessed by a radioligand binding assay (described in Bergman et. al. Bioorg. Med. Chem. Lett. 2008, 18, 1425-1430) in which the inhibition constant (Ki) is determined in membranes prepared from CHO cells expressing either the OX1 or OX2 receptor. The intrinsic orexin receptor antagonist activity of a compound which may be used in the present invention may be determined by these assays.

[2] = biological target: hOX1R (Homo sapiens, UniProt O43613); assay: FLIPR Ca2+ flux assay, orexin-1 receptor; type: cell-based; settings: CHO cells expressing orexin-1 receptor; agonist 70 pM Ala-6,12 orexin-A

Chain of human orexin-2 receptor (O43614 whole entry): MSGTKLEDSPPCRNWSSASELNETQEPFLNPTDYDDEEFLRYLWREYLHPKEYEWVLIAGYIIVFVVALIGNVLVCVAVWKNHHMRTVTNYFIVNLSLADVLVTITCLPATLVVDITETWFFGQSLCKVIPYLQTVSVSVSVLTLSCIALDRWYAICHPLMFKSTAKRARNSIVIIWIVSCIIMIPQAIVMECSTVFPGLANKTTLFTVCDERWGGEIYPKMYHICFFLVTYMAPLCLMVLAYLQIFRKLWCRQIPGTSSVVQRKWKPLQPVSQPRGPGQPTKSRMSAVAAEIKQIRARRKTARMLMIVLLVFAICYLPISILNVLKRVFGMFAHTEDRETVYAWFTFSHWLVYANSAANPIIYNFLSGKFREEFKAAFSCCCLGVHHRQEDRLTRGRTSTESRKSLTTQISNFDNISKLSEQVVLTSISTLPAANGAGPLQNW

Structure (SMILES)	IC50 [1] [nM]	IC50 [2] [nM]
C[C@@H]1CC[C@@H](Oc2cc(OCC(F)F)ccn2)CN1C(=O)c1ccccc1-n1ncnn1 [Example 29, 4-(2,2-difluoroethoxy)-2-{[(3R,6R)-6-methyl-1-{[2-(2H-tetrazol-2-yl)phenyl]carbonyl}piperidin-3-yl]oxy}pyridine]	29	8070
C[C@@H]1CC[C@@H](Oc2cc(OCC(F)(F)F)ccn2)CN1C(=O)c1ccccc1-n1ncnn1 [Example 30, 2-{[(3R,6R)-6-methyl-1-{[2-(2H-tetrazol-2-yl)phenyl]carbonyl}piperidin-3-yl]oxy}-4-(2,2,2-trifluoroethoxy)pyridine]	38	10000
C[C@@H]1CC[C@@H](Oc2cc(OCC(F)F)ccn2)CN1C(=O)c1ccccc1CS(C)(=O)=O [Example 31, 4-(2,2-difluoroethoxy)-2-{[(3R,6R)-6-methyl-1-({2-[(methylsulfonyl)methyl]phenyl}carbonyl)piperidin-3-yl]oxy}pyridine]	34	> 10000
C[C@@H]1CC[C@@H](Oc2cc(OCC(F)F)ccn2)CN1C(=O)c1ccccc1C1(C#N)CC1 [Example 32, 1-(2-{[(2R,5R)-5-{[4-(2,2-difluoroethoxy)pyridin-2-yl]oxy}-2-methylpiperidin-1-yl]carbonyl}phenyl) cyclopropanecarbonitrile]	24	4360
C[C@@H]1CC[C@@H](Oc2cc(OCC(F)F)ccn2)CN1C(=O)c1ncccc1-n1nccn1 [Example 33, 2-{[(2R,5R)-5-{[4-(2,2-difluoroethoxy)pyridin-2-yl]oxy}-2-methylpiperidin-1-yl]carbonyl}-3-(2H-1,2,3-triazol-2-yl)pyridine]	71	> 10000
C[C@@H]1CC[C@@H](Oc2cc(OCC(F)F)ccn2)CN1C(=O)c1cccc(F)c1-n1nccn1 [Example 34, 4-(2,2-difluoroethoxy)-2-{[(3R,6R)-1-{[3-fluoro-2-(2H-1,2,3-triazol-2-yl)phenyl]carbonyl}-6-methylpiperidin-3-yl]oxy}pyridine]	42	2140
C[C@@H]1CC[C@@H](Oc2cc(OCC(F)F)ccn2)CN1C(=O)c1ccc(F)cc1-n1nccn1 [Example 35, 4-(2,2-difluoroethoxy)-2-{[(3R,6R)-1-{[4-fluoro-2-(2H-1,2,3-triazol-2-yl)phenyl]carbonyl}-6-methylpiperidin-3-yl]oxy}pyridine]	62	3270
C[C@@H]1CC[C@@H](Oc2cc(OCC(F)F)ccn2)CN1C(=O)c1c(F)cccc1-n1nccn1 [Example 36, 4-(2,2-difluoroethoxy)-2-{[(3R,6R)-1-{[2-fluoro-6-(2H-1,2,3-triazol-2-yl)phenyl]carbonyl}-6-methylpiperidin-3-yl]oxy}pyridine]	56	2970
Cc1noc(-c2ccccc2C(=O)N2C[C@H](Oc3cc(OCC(F)F)ccn3)CC[C@H]2C)n1 [Example 37, 4-(2,2-difluoroethoxy)-2-{[(3R,6R)-6-methyl-1-{[2-(3-methyl-1,2,4-oxadiazol-5-yl)phenyl]carbonyl}piperidin-3-yl]oxy}pyridine]	52	2720
Cc1nc(-c2ccccc2C(=O)N2C[C@H](Oc3cc(OCC(F)F)ccn3)CC[C@H]2C)no1 [Example 38, 4-(2,2-difluoroethoxy)-2-{[(3R,6R)-6-methyl-1-{[2-(5-methyl-1,2,4-oxadiazol-3-yl)phenyl]carbonyl}piperidin-3-yl]oxy}pyridine]	56	2500
C[C@@H]1CC[C@@H](Oc2cc(OC3CC3)ccn2)CN1C(=O)c1ccccc1-n1nccn1 [Example 40, 4-(Cyclopropyloxy)-2-{[(3R,6R)-6-methyl-1-{[2-(2H-1,2,3-triazol-2-yl)phenyl]carbonyl}-piperidin-3-yl]oxy}pyridine]	15.2	581
CC(C)COc1ccnc(O[C@@H]2CC[C@@H](C)N(C(=O)c3ccccc3-n3nccn3)C2)c1 [Example 42, 4-(2-methylpropoxy)-2-{[(3R,6R)-6-methyl-1-{[2-(2H-1,2,3-triazol-2-yl)phenyl]carbonyl}piperidin-3-yl]oxy}pyridine]	134	5610
CCCOc1ccnc(O[C@@H]2CC[C@@H](C)N(C(=O)c3ccccc3-n3nccn3)C2)c1 [Example 43, 2-{[(3R,6R)-6-methyl-1-{[2-(2H-1,2,3-triazol-2-yl)phenyl]carbonyl}piperidin-3-yl]oxy}-4-propoxypyridine]	38.7	2490
CC(C)Oc1ccnc(O[C@@H]2CC[C@@H](C)N(C(=O)c3ccccc3-c3ncccn3)C2)c1 [Example 44, 2-(2-{[(2R,5R)-2-Methyl-5-{[4-(1-methylethoxy)pyridin-2-yl]oxy}piperidin-1-yl]carbonyl}phenyl)pyrimidine]	67	1640
C[C@@H]1CC[C@@H](Oc2cc(OCC(F)F)ccn2)CN1C(=O)c1ccccc1-c1ncccn1 [Example 45, 2-(2-{[(2R,5R)-5-{[4-(2,2-difluoroethoxy)pyridin-2-yl]oxy}-2-methylpiperidin-1-yl]carbonyl}phenyl) pyrimidine]	33	2940
C[C@@H]1CC[C@@H](Oc2cc(OCC(F)F)ccn2)CN1C(=O)c1ccc(F)cc1-c1ncccn1 [Example 46, 2-(2-{[(2R,5R)-5-{[4-(2,2-difluoroethoxy)pyridin-2-yl]oxy}-2-methylpiperidin-1-yl]carbonyl}-5-fluorophenyl)pyrimidine]	63	3520
C[C@@H]1CC[C@@H](Oc2cc(OCC(F)F)ccn2)CN1C(=O)c1ncccc1-c1ncccn1 [Example 47, 2-(2-{[(2R,5R)-5-{[4-(2,2-difluoroethoxy)pyridin-2-yl]oxy}-2-methylpiperidin-1-yl]carbonyl}pyridin-3-yl)pyrimidine]	84	9270
COc1ccnc(O[C@@H]2CC[C@@H](C)N(C(=O)c3ccccc3-n3nccn3)C2)c1C [Example 48, 4-Methoxy-3-methyl-2-{[(3R,6R)-6-methyl-1-{[2-(2H-1,2,3-triazol-2-yl)phenyl]carbonyl}piperidin-3-yl]oxy}pyridine]	9.7	568
COc1ccnc(O[C@@H]2CC[C@@H](C)N(C(=O)c3ccccc3-n3nccn3)C2)c1F [Example 49, 3-Fluoro-4-methoxy-2-{[(3R,6R)-6-methyl-1-{[2-(2H-1,2,3-triazol-2-yl)phenyl]carbonyl}piperidin-3-yl]oxy}pyridine]	71	10000
COc1ccnc(O[C@@H]2CC[C@@H](C)N(C(=O)c3ccccc3-n3nccn3)C2)c1C=O [Example 50, 4-Methoxy-2-{[(3R,6R)-6-methyl-1-{[2-(2H-1,2,3-triazol-2-yl)phenyl]carbonyl}piperidin-3-yl]oxy}pyridine-3-carbaldehyde]	37.5	6750
COc1ccnc(O[C@@H]2CC[C@@H](C)N(C(=O)c3ccccc3-n3nccn3)C2)c1C(C)=O [Example 51, 1-(4-methoxy-2-{[(3R,6R)-6-methyl-1-{[2-(2H-1,2,3-triazol-2-yl)phenyl]carbonyl}piperidin-3-yl]oxy}pyridin-3-yl)ethanone]	12.3	976
C[C@@H]1CC[C@@H](Oc2cc(OC(F)F)ccn2)CN1C(=O)c1ccccc1-n1nccn1 [Example 52, (2-(2H-1,2,3-Triazol-2-yl)phenyl)((2R,5R)-5-((4-(difluoromethoxy)pyridin-2-yl)oxy)-2-methylpiperidin-1-yl)methanone]	4	194
C[C@@H]1CC[C@@H](Oc2cc(OCF)ccn2)CN1C(=O)c1ccccc1-n1nccn1 [Example 53, (2-(2H-1,2,3-Triazol-2-yl)phenyl)((2R,5R)-5-((4-(fluoromethoxy)pyridin-2-yl)oxy)-2-methylpiperidin-1-yl)methanone]	8	490
C[C@@H]1CC[C@@H](Oc2cc(OC(F)F)ccn2)CN1C(=O)c1ccsc1-n1nccn1 [Example 54, (2-(2H-1,2,3-Triazol-2-yl)thiophen-3-yl)((2R,5R)-5-((4-(difluoromethoxy)pyridin-2-yl)oxy)-2-methylpiperidin-1-yl)methanone]	11	1020
